# Molecular target: T1, Retinoid isomerohydrolase (Human, UniProt Q16518)
# T1 sequence (Q16518 whole entry): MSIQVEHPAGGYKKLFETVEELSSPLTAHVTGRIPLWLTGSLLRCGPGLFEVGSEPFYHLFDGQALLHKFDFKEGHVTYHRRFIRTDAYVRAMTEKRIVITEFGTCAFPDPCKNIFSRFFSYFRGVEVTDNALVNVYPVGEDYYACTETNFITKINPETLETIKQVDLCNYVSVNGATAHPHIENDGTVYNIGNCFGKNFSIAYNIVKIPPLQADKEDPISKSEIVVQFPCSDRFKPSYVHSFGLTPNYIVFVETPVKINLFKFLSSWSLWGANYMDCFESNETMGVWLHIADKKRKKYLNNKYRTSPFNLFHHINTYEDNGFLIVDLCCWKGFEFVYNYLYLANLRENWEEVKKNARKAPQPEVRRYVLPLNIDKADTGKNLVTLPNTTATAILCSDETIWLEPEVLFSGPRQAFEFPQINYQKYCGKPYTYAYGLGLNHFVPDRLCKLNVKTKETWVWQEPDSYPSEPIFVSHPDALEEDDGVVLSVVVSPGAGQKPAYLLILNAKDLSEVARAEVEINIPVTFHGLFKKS
# Experiment: In Vitro Isomerase Inhibition Assay
row,SMILES,IC50
1,"NCCOc1cccc(OCC2(O)CCCCCC2)c1 [US10188615, Example 18]",in the range around 550 nM
2,"CCCC(CCC)COc1cccc(OCCN)c1 [US10188615, Example 25]",in the range around 55 nM
3,"NCCOc1cccc(OCC2(O)CCCCC2)c1 [US10188615, Example 26]",in the range around 550 nM
4,"CCC(O)(CC)COc1cccc(OCCN)c1 [US10188615, Example 31]",in the range around 550 nM
5,"CCC(CC)COc1cccc(OCCN)c1 [US10188615, Example 36]",in the range around 55 nM
6,"CC(C)CCOc1cccc(OCCN)c1 [US10188615, Example 46]",in the range around 55 nM
7,"CC[C@H](CN)[C@@H](O)c1cccc(OCC2CCCCC2)c1 [US10188615, Example 49]",in the range around 55 nM
8,"CCC(CC)COc1cccc(O[C@H](C)CN)c1 [US10188615, Example 50]",in the range around 550 nM
9,"CCCC(CCC)COc1cccc(O[C@H](C)CN)c1 [US10188615, Example 51]",in the range around 550 nM
10,"C[C@H](CN)Oc1cccc(OCC2CCCC2)c1 [US10188615, Example 52]",in the range around 550 nM
11,"C[C@H](CN)Oc1cccc(OCC2CCCCC2)c1 [US10188615, Example 53]",in the range around 550 nM
12,"NCCOc1cccc(OCC2CC2)c1 [US10188615, Example 57]",in the range around 550 nM
13,"NCCOc1cccc(OCC2CCC2)c1 [US10188615, Example 58]",in the range around 550 nM
14,"CCC(CC)COc1cccc(O[C@@H](C)CN)c1 [US10188615, Example 62]",in the range around 550 nM
15,"CCCC(CCC)COc1cccc(O[C@@H](C)CN)c1 [US10188615, Example 63]",in the range around 550 nM
16,"C[C@@H](CN)Oc1cccc(OCC2CCCC2)c1 [US10188615, Example 64]",in the range around 550 nM
17,"C[C@@H](CN)Oc1cccc(OCC2CCCCC2)c1 [US10188615, Example 65]",in the range around 550 nM
18,"CCC(CC)COc1cccc(C[C@H](O)CN)c1 [US10188615, Example 66]",in the range around 55 nM
19,"CCCC(CCC)COc1cccc(C[C@H](O)CN)c1 [US10188615, Example 67]",in the range around 55 nM
20,"CCCC(CCC)COc1cccc(C[C@@H](O)CN)c1 [US10188615, Example 68]",in the range around 55 nM
21,"CCC(CC)COc1cccc(C[C@@H](O)CN)c1 [US10188615, Example 69]",in the range around 55 nM
22,"NCCC(O)c1cccc(OCC2CC2)c1 (stereo unspecified) [US10188615, Example 71]",in the range around 55 nM
23,"C[C@@H](CN)[C@H](O)c1cccc(OCC2CCCCC2)c1 [US10188615, Example 73]",in the range around 55 nM

row,SMILES,IC50
1,"C[C@@H](CN)[C@@H](O)c1cccc(OCC2CCCCC2)c1 [US10188615, Example 75]",in the range around 55 nM
2,"C[C@H](CN)[C@H](O)c1cccc(OCC2CCCCC2)c1 [US10188615, Example 76]",in the range around 5500 nM
3,"COCCOCCOCC(=O)NCCC(O)c1cccc(OCC2CCCCC2)c1 (stereo unspecified) [US10188615, Example 77]",in the range around 5500 nM
4,"C=C(CCN)c1cccc(OCC2CCCCC2)c1 [US10188615, Example 78]",in the range around 550 nM
5,"NCCC(O)(CO)c1cccc(OCC2CCCCC2)c1 (stereo unspecified) [US10188615, Example 79]",in the range around 5500 nM
6,"NCCC(CO)c1cccc(OCC2CCCCC2)c1 (stereo unspecified) [US10188615, Example 80]",in the range around 550 nM
7,"CC(CCN)c1cccc(OCC2CCCCC2)c1 (stereo unspecified) [US10188615, Example 81]",in the range around 55 nM
8,"COCCCCOc1cccc(OCCN)c1 [US10188615, Example 82]",in the range around 550 nM
9,"NCCC(O)c1cccc(OCC2CCCCO2)c1 (stereo unspecified) [US10188615, Example 83]",in the range around 55 nM
10,"NCCOc1cccc(OCc2c(Cl)cccc2Cl)c1 [US10188615, Example 84]",in the range around 550 nM
11,"COCCCOc1cccc(OCCN)c1 [US10188615, Example 85]",in the range around 550 nM
12,"COCCOc1cccc(C(O)CCN)c1 (stereo unspecified) [US10188615, Example 86]",in the range around 550 nM
13,"CCCCCOc1cccc(OCCN)c1 [US10188615, Example 90]",in the range around 55 nM
14,"NCCOc1cccc(OCC2CCCCCCC2)c1 [US10188615, Example 93]",in the range around 55 nM
15,"NCCOc1cccc(OCCCO)c1 [US10188615, Example 95]",in the range around 5500 nM
16,"NCCOc1cccc(OCC2CCCC2)c1 [US10188615, Example 104]",in the range around 55 nM
17,"NCCC(O)c1cccc(OCc2c(Cl)cccc2Cl)c1 (stereo unspecified) [US10188615, Example 105]",in the range around 55 nM
18,"NCCC(O)c1cccc(OCC2CCCCCCC2)c1 (stereo unspecified) [US10188615, Example 106]",in the range around 55 nM
19,"CC(C)CCOc1cccc(C(O)CCN)c1 (stereo unspecified) [US10188615, Example 107]",in the range around 55 nM
20,"COCCCOc1cccc(C(O)CCN)c1 (stereo unspecified) [US10188615, Example 108]",in the range around 55 nM
21,"NCCC(O)c1cccc(OCCO)c1 (stereo unspecified) [US10188615, Example 109]",in the range around 5500 nM
22,"COCCOc1cccc(OCCN)c1 [US10188615, Example 113]",in the range around 5500 nM

# The remaining lines, values ahead:
row,IC50,SMILES
1,in the range around 55 nM,"NCCCc1cccc(OC[C@H]2CCCC[C@H]2O)c1 (relative stereo) [US10188615, Example 147]"
2,in the range around 55 nM,"NCCCc1cccc(OC[C@@H]2CCCC[C@H]2O)c1 (relative stereo) [US10188615, Example 148]"
3,in the range around 550 nM,"NCCOc1cccc(OCc2ccccc2)c1 [US10188615, Example 8]"
4,in the range around 55 nM,"CCC(O)(CC)COc1cccc(CCCN)c1 [US10188615, Example 32]"
5,in the range around 550 nM,"CC(C)CCOc1cccc(CCCN)c1 [US10188615, Example 33]"
6,in the range around 55 nM,"NCCC(O)c1cccc(OCc2ccccc2)c1 (stereo unspecified) [US10188615, Example 37]"
7,in the range around 550 nM,"COc1ccccc1COc1cccc(CCCN)c1 [US10188615, Example 38]"
8,in the range around 5500 nM,"COCCOc1cccc(CCCN)c1 [US10188615, Example 40]"
9,in the range around 550 nM,"COCCCCOc1cccc(CCCN)c1 [US10188615, Example 41]"
10,in the range around 5500 nM,"NCCCc1cccc(OCCCCOCc2ccccc2)c1 [US10188615, Example 42]"
11,in the range around 550 nM,"CCCCCOc1cccc(CCCN)c1 [US10188615, Example 44]"
12,in the range around 55 nM,"NCCOc1cccc(OCCc2ccccc2)c1 [US10188615, Example 47]"
13,in the range around 55 nM,"NCCC(O)c1cccc(OCCc2ccccc2)c1 (stereo unspecified) [US10188615, Example 54]"
14,in the range around 550 nM,"NCCCc1cccc(OCc2ccccc2)c1 [US10188615, Example 59]"
15,in the range around 550 nM,"NCCCc1cccc(OCC2CC2)c1 [US10188615, Example 60]"
16,in the range around 550 nM,"NCCCc1cccc(OCC2CCC2)c1 [US10188615, Example 61]"

row,IC50,SMILES
1,in the range around 550 nM,"NCCCc1cccc(OCCc2ccccc2)c1 [US10188615, Example 70]"
2,in the range around 550 nM,"NCCOc1cccc(OCCCc2ccccc2)c1 [US10188615, Example 89]"
3,in the range around 550 nM,"NCCCc1cccc(OCc2c(Cl)cccc2Cl)c1 [US10188615, Example 91]"
4,in the range around 55 nM,"COc1ccccc1COc1cccc(C(O)CCN)c1 (stereo unspecified) [US10188615, Example 92]"
5,in the range around 550 nM,"NCCOc1cccc(OCCCOCc2ccccc2)c1 [US10188615, Example 94]"
6,in the range around 550 nM,"NCCCc1cccc(OCCCc2ccccc2)c1 [US10188615, Example 96]"
7,in the range around 5500 nM,"NCCCc1cccc(OCCCO)c1 [US10188615, Example 98]"
8,in the range around 550 nM,"NCCCc1cccc(OCC2CCCCCCC2)c1 [US10188615, Example 99]"
9,in the range around 5500 nM,"NCCOc1cccc(OCCCCOCc2ccccc2)c1 [US10188615, Example 100]"
10,in the range around 550 nM,"COc1ccccc1COc1cccc(OCCN)c1 [US10188615, Example 101]"
11,in the range around 550 nM,"NCCCc1cccc(OCCOCc2ccccc2)c1 [US10188615, Example 102]"
12,in the range around 55 nM,"NCCCc1cccc(OCC2CCCC2)c1 [US10188615, Example 103]"
13,in the range around 55 nM,"NCCC(O)c1cccc(OCCCCOCc2ccccc2)c1 (stereo unspecified) [US10188615, Example 114]"
14,in the range around 55 nM,"NCCC(O)c1cccc(OCCCCCOCc2ccccc2)c1 (stereo unspecified) [US10188615, Example 115]"
15,in the range around 550 nM,"NCCCc1cccc(OCc2nccs2)c1 [US10188615, Example 122]"
